Like-named read-outs stand apart in the source and are kept apart here.
Assays:
Format in all cases: binding
[1] = target: T1, HeLa cell extract proteins (Homo sapiens, UniProt P35637)
T1 construct: endogenous in cells; host or cells: HeLa cell extract
T1 sequence (P35637 1-526): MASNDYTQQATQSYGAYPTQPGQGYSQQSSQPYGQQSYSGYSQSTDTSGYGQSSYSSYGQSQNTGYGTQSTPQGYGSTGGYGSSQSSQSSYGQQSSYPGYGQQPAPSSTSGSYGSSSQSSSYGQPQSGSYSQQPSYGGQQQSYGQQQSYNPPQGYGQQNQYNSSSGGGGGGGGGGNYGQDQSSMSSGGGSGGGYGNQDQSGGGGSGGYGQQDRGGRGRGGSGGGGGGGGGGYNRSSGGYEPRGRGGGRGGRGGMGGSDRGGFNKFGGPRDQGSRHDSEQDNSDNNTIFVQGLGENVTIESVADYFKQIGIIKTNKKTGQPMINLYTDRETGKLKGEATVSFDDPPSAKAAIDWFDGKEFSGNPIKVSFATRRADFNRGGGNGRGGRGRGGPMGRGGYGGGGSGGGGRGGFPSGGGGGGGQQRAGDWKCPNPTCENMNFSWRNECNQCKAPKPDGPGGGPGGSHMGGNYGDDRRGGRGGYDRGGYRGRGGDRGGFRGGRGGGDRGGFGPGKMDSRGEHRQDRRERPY

[2] = target: T2, HeLa cell extract proteins (Homo sapiens, UniProt P17844)
T2 construct: endogenous in cells; host or cells: HeLa cell extract
T2 sequence (P17844 whole entry): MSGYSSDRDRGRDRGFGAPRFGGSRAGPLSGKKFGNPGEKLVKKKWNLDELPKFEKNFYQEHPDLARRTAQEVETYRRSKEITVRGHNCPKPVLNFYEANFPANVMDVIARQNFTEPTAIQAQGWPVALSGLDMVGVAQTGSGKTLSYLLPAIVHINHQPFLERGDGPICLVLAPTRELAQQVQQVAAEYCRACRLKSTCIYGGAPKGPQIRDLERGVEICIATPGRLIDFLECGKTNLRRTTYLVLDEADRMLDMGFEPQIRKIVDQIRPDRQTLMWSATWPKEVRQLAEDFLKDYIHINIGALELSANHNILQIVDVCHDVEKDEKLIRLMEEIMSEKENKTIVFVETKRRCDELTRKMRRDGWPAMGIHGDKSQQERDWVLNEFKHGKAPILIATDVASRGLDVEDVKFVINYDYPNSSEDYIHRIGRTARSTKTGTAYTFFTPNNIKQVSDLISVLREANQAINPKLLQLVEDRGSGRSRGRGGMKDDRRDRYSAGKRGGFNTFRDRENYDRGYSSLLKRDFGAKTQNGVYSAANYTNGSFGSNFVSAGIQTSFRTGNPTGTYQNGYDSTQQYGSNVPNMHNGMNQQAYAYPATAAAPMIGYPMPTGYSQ

[3] = target: T3, HeLa cell extract proteins (Homo sapiens, UniProt O95372)
T3 construct: endogenous in cells; host or cells: HeLa cell extract
T3 sequence (O95372 whole entry): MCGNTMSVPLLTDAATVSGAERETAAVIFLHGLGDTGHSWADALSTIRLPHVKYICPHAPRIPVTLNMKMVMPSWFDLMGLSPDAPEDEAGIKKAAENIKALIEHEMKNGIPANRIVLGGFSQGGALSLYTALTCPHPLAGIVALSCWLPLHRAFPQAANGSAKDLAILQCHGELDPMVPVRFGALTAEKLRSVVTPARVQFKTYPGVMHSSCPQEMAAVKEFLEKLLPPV

[4] = target: T4, HeLa cell extract proteins (Homo sapiens, UniProt Q99714)
T4 construct: endogenous in cells; host or cells: HeLa cell extract
T4 sequence (Q99714 1-261): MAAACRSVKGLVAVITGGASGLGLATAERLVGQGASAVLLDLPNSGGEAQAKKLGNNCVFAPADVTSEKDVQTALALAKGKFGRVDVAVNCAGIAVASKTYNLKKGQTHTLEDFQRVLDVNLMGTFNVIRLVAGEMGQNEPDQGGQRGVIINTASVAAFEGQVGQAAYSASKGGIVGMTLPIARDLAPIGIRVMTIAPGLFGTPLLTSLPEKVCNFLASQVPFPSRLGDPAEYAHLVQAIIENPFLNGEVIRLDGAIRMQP

[5] = target: T5, HeLa cell extract proteins (Homo sapiens, UniProt P06744)
T5 construct: endogenous in cells; host or cells: HeLa cell extract

[6] = target: T6, HeLa cell extract proteins (Homo sapiens, UniProt Q02790)
T6 construct: endogenous in cells; host or cells: HeLa cell extract
T6 sequence (Q02790 1-459): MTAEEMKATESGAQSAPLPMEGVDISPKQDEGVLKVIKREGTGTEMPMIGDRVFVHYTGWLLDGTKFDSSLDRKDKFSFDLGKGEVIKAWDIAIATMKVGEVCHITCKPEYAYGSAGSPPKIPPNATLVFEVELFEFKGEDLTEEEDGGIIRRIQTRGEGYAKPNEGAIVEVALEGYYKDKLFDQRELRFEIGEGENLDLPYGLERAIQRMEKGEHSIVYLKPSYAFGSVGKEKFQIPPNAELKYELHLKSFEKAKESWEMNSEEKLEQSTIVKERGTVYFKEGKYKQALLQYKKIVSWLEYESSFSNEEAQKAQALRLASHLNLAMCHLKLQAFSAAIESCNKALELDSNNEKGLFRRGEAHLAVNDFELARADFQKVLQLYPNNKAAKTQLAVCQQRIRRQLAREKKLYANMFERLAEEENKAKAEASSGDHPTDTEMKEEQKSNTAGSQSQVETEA

[7] = target: T7, HeLa cell extract proteins (Homo sapiens, UniProt O60762)
T7 construct: endogenous in cells; host or cells: HeLa cell extract
T7 sequence (O60762 whole entry): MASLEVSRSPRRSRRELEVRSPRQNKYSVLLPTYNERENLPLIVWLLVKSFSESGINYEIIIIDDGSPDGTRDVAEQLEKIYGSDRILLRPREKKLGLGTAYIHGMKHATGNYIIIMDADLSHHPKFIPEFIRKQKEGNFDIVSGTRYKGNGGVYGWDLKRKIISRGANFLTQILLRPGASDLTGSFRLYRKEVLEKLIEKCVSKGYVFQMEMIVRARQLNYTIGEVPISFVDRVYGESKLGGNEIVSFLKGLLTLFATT

[8] = target: T8, HeLa cell extract proteins (Homo sapiens, UniProt P11310)
T8 construct: endogenous in cells; host or cells: HeLa cell extract
T8 sequence (P11310 26-421): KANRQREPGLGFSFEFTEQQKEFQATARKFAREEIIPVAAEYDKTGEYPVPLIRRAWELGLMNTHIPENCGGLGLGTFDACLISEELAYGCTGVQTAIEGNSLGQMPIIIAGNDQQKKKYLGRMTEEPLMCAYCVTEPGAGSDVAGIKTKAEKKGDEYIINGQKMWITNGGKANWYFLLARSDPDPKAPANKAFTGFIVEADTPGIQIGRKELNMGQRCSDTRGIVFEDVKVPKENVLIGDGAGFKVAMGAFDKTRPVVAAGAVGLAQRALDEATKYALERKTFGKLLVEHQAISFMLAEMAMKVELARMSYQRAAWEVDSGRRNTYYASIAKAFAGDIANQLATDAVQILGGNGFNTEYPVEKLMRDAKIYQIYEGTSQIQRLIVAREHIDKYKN

[9] = target: T9, HeLa cell extract proteins (Homo sapiens, UniProt O60547)
T9 construct: endogenous in cells; host or cells: HeLa cell extract
T9 sequence (O60547 1-372): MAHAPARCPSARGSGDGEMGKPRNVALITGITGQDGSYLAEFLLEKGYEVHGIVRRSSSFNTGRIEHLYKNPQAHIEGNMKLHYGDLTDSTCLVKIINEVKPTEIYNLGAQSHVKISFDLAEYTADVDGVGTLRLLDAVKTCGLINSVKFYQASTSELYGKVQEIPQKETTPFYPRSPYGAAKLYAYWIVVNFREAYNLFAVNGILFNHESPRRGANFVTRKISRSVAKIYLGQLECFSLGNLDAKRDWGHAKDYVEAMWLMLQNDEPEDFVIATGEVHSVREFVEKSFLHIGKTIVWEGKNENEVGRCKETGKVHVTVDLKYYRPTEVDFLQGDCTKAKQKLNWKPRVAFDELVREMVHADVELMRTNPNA

[10] = HeLa, protein FUS (FUS-LIKE PROTEIN (FRAGMENT))
[11] = HeLa, protein DDX5 (PROBABLE ATP-DEPENDENT RNA HELICASE DDX5)
[12] = HeLa, protein ACADM (HY[…] DKFZP686M24262)
[13] = HeLa, protein GPI (CDNA FLJ56429, HIGHLY SIMILAR TO GLUCOSE-6-PHOSPHATE ISOMERASE.)
[14] = HeLa, protein FKBP4 (FK506-BINDING PROTEIN 4.)

| Compound | fold changes relative to vehicle control [1, 10] | fold changes relative to vehicle control [2, 11] | fold changes relative to vehicle control ([3]; protein LYPLA2, HeLa) | fold changes relative to vehicle control ([4]; HeLa, protein HSD17B10) | fold changes relative to vehicle control ([5]; HeLa, protein GPI) | fold changes relative to vehicle control ([6]; HeLa, protein FKBP4) | fold changes relative to vehicle control ([7]; protein DPM1, HeLa) | fold changes relative to vehicle control ([9]; HeLa, captured protein GMDS) | fold changes relative to vehicle control ([1]; protein FUS, HeLa) | fold changes relative to vehicle control ([2]; HeLa, protein DDX5) | fold changes relative to vehicle control ([3]; HeLa, protein LYPLA2) | fold changes relative to vehicle control ([4]; protein HSD17B10, HeLa) | fold changes relative to vehicle control [5, 13] | fold changes relative to vehicle control [6, 14] | fold changes relative to vehicle control ([7]; captured protein DPM1, HeLa) | fold changes relative to vehicle control ([8]; protein ACADM, HeLa) | fold changes relative to vehicle control ([9]; HeLa, protein GMDS) | further results |
| --- | --- | --- | --- | --- | --- | --- | --- | --- | --- | --- | --- | --- | --- | --- | --- | --- | --- | --- |
| Nc1nc2c(c(=O)[nH]1)N(C=O)C(CNc1ccc(C(=O)N[C@@H](CCC(=O)O)C(=O)O)cc1)CN2 (stereo partly drawn) [LEU, leucovorin] | 1.06 | 0.88 | 0.89 | 0.93 | 0.98 | 1.01 | 0.94 | 1 | – | – | – | – | – | – | – | – | – | fold changes relative to vehicle control [8, 12]: 1.16 |
| NCCCNc1ccc(C(=O)NC(CCC(=O)O)C(=O)O)cc1 (stereo not drawn) [compound 7] | 1.25 | 0.93 | 1.01 | 0.93 | 0.96 | 1.05 | 1.04 | 1.12 | – | – | – | – | – | – | – | – | – | fold changes relative to vehicle control [8, 12]: 1.06 |
| CCCCCCOc1cccc(Cc2cnc(N)nc2N)c1 [compound 2] | – | – | – | – | – | – | – | – | 1.21 | 1.12 | 1.19 | 1.31 | 2.26 fold | 2.28 fold | 0.84 | 1.75 | 1.21 | – |
| CCCCCCOc1ccc(Cc2cnc(N)nc2N)cc1 [compound 1] | – | – | – | – | – | – | – | – | 1.05 | 0.92 | 0.82 | 0.91 | 1.37 fold | 1.48 fold | 0.89 | 1.17 | 1.06 | – |
| Nc1nc2cccc(-c3ccccc3)c2n1Cc1ccc(Cl)c(Cl)c1 [compound 3] | – | – | – | – | – | – | – | – | 1.02 | 0.9 | 0.97 | 0.93 | 0.93 fold | 1.05 fold | 1.02 | 1 | 1.25 | – |
| NCCOCCOCC(=O)Nc1nc2ncc(CNc3ccc(C(=O)NC(CCC(=O)O)C(=O)O)cc3)nc2c(=O)[nH]1 (stereo not drawn) [compound 6] | 1.09 | 1.15 | 1.09 | 0.94 | 1.23 | 1.4 | 1.1 | 0.98 | – | – | – | – | – | – | – | – | – | fold changes relative to vehicle control ([8]; HeLa, protein ACADM (HYPOTHETICAL PROTEIN DKFZP686M24262)): 1.43 |
| Nc1nc2[nH]cc(CCc3ccc(C(=O)N[C@@H](CCC(=O)O)C(=O)O)cc3)c2c(=O)[nH]1 [PTX, pemetrexed] | – | – | – | – | – | – | – | – | – | – | – | – | – | – | – | – | – | fold changes relative to vehicle control [1]: 1.03; fold changes relative to vehicle control [2]: 0.82; fold changes relative to vehicle control [3]: 0.99; fold changes relative to vehicle control [4]: 0.9; fold changes relative to vehicle control [5]: 1.08; fold changes relative to vehicle control [6]: 1.18; fold changes relative to vehicle control [7]: 0.88; fold changes relative to vehicle control [8]: 1.3; fold changes relative to vehicle control [9]: 1 |
